Laboratory results: patent publication US8415336B2, “Cyclic (aza)indolizinecarboxamides, their preparation and their use as pharmaceuticals” (Sanofi, priority 2009, dated 2013)

Target: T1, Recombinant human renin (Homo sapiens, UniProt P00797)
T1 construct: purchased Cayman 10006217
T1 sequence (P00797 67-406): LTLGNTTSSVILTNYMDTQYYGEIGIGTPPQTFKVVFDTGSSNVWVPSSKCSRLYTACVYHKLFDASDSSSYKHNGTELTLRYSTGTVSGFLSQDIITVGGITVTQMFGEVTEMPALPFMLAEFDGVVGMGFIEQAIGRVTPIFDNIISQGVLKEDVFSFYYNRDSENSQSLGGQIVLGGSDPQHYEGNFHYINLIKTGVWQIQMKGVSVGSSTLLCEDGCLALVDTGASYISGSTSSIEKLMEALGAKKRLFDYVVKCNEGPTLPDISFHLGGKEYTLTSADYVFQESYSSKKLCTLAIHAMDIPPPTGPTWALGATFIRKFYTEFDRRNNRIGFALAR
Experiment: Inhibition of renin (fluorogenic peptide substrate)
Format: biochemical
Settings: recombinant human renin 5 nM, fluorogenic peptide substrate 10 μM, 2 h at room temperature, Tris buffer pH 8; compounds tested as the obtained salt
Experimental: Recombinant human renin (Cayman, no. 10006217) at a concentration of 5 nM was incubated with the test compounds at various concentrations and the synthetic substrate Dabcyl-γ-Abu-Ile-His-Pro-Phe-His-Leu-Val-Ile-His-Thr-EDANS (Bachem, no. M-2050; Dabcyl means the 4-(4-dimethylamino-phenylazo)-benzoyl group and EDANS means the amide with 5-[(2-aminoethyl)amino]-naphthalene-1-sulfonic acid) at a concentration of 10 μM for 2 h at room temperature in 0.05 M Tris buffer (pH 8) containing 0.1 M NaCl, 2.5 mM EDTA and 1.25 mg/ml bovine serum albumin. The increase in fluorescence, which is due to fluorescence resonance energy transfer, was recorded at an excitation wavelength of 330 nm and an emission wavelength of 485 nm in a microplate spectrofluorometer. Inhibitory concentrations IC50 were calculated from the percentage of inhibition of renin activity as a function of the concentration of the test compound. […] Representative IC50 values, which were determined with the compounds in the form of the obtained salt indicated in the examples above, are listed in Table 4.

Row | IC50 | SMILES
1 | 76 nM | Cc1c(F)cccc1Cc1c(C(=O)N2CCN[C@@H](C)C2)c2ccccn2c1-c1ccccc1 [Example 15, [2-(3-Fluoro-2-methyl-benzyl)-3-phenyl-indolizin-1-yl)-((S)-3-methyl-piperazin-1-yl)-methanone]
2 | 870 nM | Cc1cccc(C)c1Cc1c(-c2ccccc2)c2ccccn2c1C(=O)N1CCN[C@H](C)C1 [Example 17, [2-(2,6-Dimethyl-benzyl)-1-phenyl-indolizin-3-yl)-((R)-3-methyl-piperazin-1-yl)-methanone]
3 | 3.4 nM | Cc1c(F)cccc1Cc1c(-c2cccc(F)c2)c2ccccn2c1C(=O)N1CCNCC1 [Example 20, [2-(3-fluoro-2-methyl-benzyl)-1-(3-fluoro-phenyl)-indolizin-3-yl]-piperazin-1-yl-methanone]
4 | 100 nM | Cc1c(F)cccc1Cc1c(-c2ccccc2)c2ccccn2c1C(=O)N1CCN[C@@H](CO)C1 [Example 22]
5 | 230 nM | CNC(=O)CC[C@H]1CN(C(=O)c2c(Cc3cccc(F)c3C)c(-c3ccccc3)c3ccccn23)CCN1 [Example 26]
6 | 31 nM | COC(=O)CCNC(=O)C[C@H]1CN(C(=O)c2c(Cc3cccc(F)c3C)c(-c3ccccc3)c3ccccn23)CCN1 [Example 30]
7 | 21 nM | Cc1c(F)cccc1Cc1c(-c2ccccc2)c2ccccn2c1C(=O)N1CCN[C@@H](CC(=O)NCCS(C)(=O)=O)C1 [Example 31]
8 | 38 nM | Cc1c(F)cccc1Cc1c(-c2ccccc2)c2ccccn2c1C(=O)N1CCN[C@@H](CC(=O)NCc2cccnc2)C1 [Example 32]
9 | 28 nM | COc1ccn2c(C(=O)N3CCNCC3)c(Cc3cccc(F)c3C)c(-c3ccccc3)c2c1 [Example 35, [2-(3-fluoro-2-methyl-benzyl)-7-methoxy-1-phenyl-indolizin-3-yl]-piperazin-1-yl-methanone]
10 | 7.4 nM | Cc1c(F)cccc1Cc1c(-c2ccccc2)c2cc(C(=O)N3CCCCC3)cnn2c1C(=O)N1CCN[C@@H](CC(=O)NCCO)C1 [Example 39]
11 | 10 nM | COCCN(C)C(=O)C[C@H]1CN(C(=O)c2c(Cc3cccc(F)c3C)c(-c3ccccc3)c3cc(C(=O)N(C)C)cnn23)CCN1 [Example 46]
